Columns and labels:
Experiment in all cases: relative viability (nuclei count vs DMSO), 5 days (fraction); higher = more cells survive
[1] = system: NCI-H1975
Method in brief: (§1)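 Nuclei were stained with Hoechst during a one-step fixation (final 0.05% Triton X-100, 1% formaldehyde, 1 ug/ml Hoechst) carried out 5 days after dosing, then counted on 4× images. The cells, lung cancer lines in 1536-well plates, had been dosed by pin tool the day after seeding with one drug alone or a fixed anchor-drug dose plus five library-drug doses (not always all listed) in √10 steps. Relative viability is the nuclei count in treated wells divided by that in vehicle wells, and each value is the median of duplicate plates.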

[2] = system: CAL-12T
Method in brief: as §1

[3] = system: LCLC-97TM1
Method in brief: as §1

[4] = system: NCI-H1563
Method in brief: as §1

[5] = system: NCI-H1734
Method in brief: as §1

[6] = system: HCC-827
Method in brief: as §1

[7] = system: H3255
Method in brief: as §1

[8] = system: NCI-H1355
Method in brief: as §1

[9] = system: NCI-H661
Method in brief: as §1

[10] = system: NCI-H322M
Method in brief: as §1

[11] = system: NCI-H1755
Method in brief: as §1

[12] = system: NCI-H520
Method in brief: as §1

[13] = system: NCI-H1650
Method in brief: as §1

[14] = system: RERF-LC-KJ
Method in brief: as §1

[15] = system: LK-2
Method in brief: as §1

[16] = system: PC-14
Method in brief: as §1

[17] = system: NCI-H2405
Method in brief: as §1

[18] = system: NCI-H2342
Method in brief: as §1

[19] = system: NCI-H2228
Method in brief: as §1

[20] = system: PC-3 [JPC-3]
Method in brief: as §1

[21] = system: HCC-15
Method in brief: as §1

[22] = system: EKVX
Method in brief: as §1

## COc1cc2nccc(Oc3ccc(NC(=O)Nc4cc(C)on4)c(Cl)c3)c2cc1OC [Tivozanib] + Cc1nc(Nc2ncc(C(=O)Nc3c(C)cccc3Cl)s2)cc(N2CCN(CCO)CC2)n1 [Dasatinib] (partner 0.075 µM)
[1]; first compound 0.005 µM
  relative viability: 0.381
[1]; first compound 0.01581 µM
  relative viability: 0.367
[1]; first compound 0.05 µM
  relative viability: 0.417
[1]; first compound 0.1581 µM
  relative viability: 0.278
[1]; first compound 0.5 µM
  relative viability: 0.315
[2]; first compound 0.005 µM
  relative viability: 0.402
[2]; first compound 0.01581 µM
  relative viability: 0.527
[2]; first compound 0.05 µM
  relative viability: 0.481
[2]; first compound 0.1581 µM
  relative viability: 0.343
[2]; first compound 0.5 µM
  relative viability: 0.285
[3]; first compound 0.005 µM
  relative viability: 0.941
[3]; first compound 0.01581 µM
  relative viability: 0.855
[3]; first compound 0.05 µM
  relative viability: 0.923
[3]; first compound 0.1581 µM
  relative viability: 0.921
[3]; first compound 0.5 µM
  relative viability: 0.836
[4]; first compound 0.005 µM
  relative viability: 0.455
[4]; first compound 0.01581 µM
  relative viability: 0.463
[4]; first compound 0.05 µM
  relative viability: 0.466
[4]; first compound 0.1581 µM
  relative viability: 0.441
[4]; first compound 0.5 µM
  relative viability: 0.488
[5]; first compound 0.005 µM
  relative viability: 0.424
[5]; first compound 0.01581 µM
  relative viability: 0.536
[5]; first compound 0.05 µM
  relative viability: 0.51
[5]; first compound 0.1581 µM
  relative viability: 0.366
[5]; first compound 0.5 µM
  relative viability: 0.425
[6]; first compound 0.005 µM
  relative viability: 0.288
[6]; first compound 0.01581 µM
  relative viability: 0.36
[6]; first compound 0.05 µM
  relative viability: 0.317
[6]; first compound 0.1581 µM
  relative viability: 0.338
[6]; first compound 0.5 µM
  relative viability: 0.231
[7]; first compound 0.005 µM
  relative viability: 0.316
[7]; first compound 0.01581 µM
  relative viability: 0.432
[7]; first compound 0.05 µM
  relative viability: 0.347
[7]; first compound 0.1581 µM
  relative viability: 0.345
[7]; first compound 0.5 µM
  relative viability: 0.326
[8]; first compound 0.005 µM
  relative viability: 0.672
[8]; first compound 0.01581 µM
  relative viability: 0.689
[8]; first compound 0.05 µM
  relative viability: 0.787
[8]; first compound 0.1581 µM
  relative viability: 0.413
[8]; first compound 0.5 µM
  relative viability: 0.691
[9]; first compound 0.005 µM
  relative viability: 0.851
[9]; first compound 0.01581 µM
  relative viability: 0.909
[9]; first compound 0.05 µM
  relative viability: 0.95
[9]; first compound 0.1581 µM
  relative viability: 0.834
[9]; first compound 0.5 µM
  relative viability: 0.796
[10]; first compound 0.005 µM
  relative viability: 0.26
[10]; first compound 0.01581 µM
  relative viability: 0.241
[10]; first compound 0.05 µM
  relative viability: 0.272
[10]; first compound 0.1581 µM
  relative viability: 0.249
[10]; first compound 0.5 µM
  relative viability: 0.254
[11]; first compound 0.005 µM
  relative viability: 0.356
[11]; first compound 0.01581 µM
  relative viability: 0.415
[11]; first compound 0.05 µM
  relative viability: 0.432
[11]; first compound 0.1581 µM
  relative viability: 0.315
[11]; first compound 0.5 µM
  relative viability: 0.383
[12]; first compound 0.005 µM
  relative viability: 0.183
[12]; first compound 0.01581 µM
  relative viability: 0.201
[12]; first compound 0.05 µM
  relative viability: 0.232
[12]; first compound 0.1581 µM
  relative viability: 0.175
[12]; first compound 0.5 µM
  relative viability: 0.182
[13]; first compound 0.005 µM
  relative viability: 0.309
[13]; first compound 0.01581 µM
  relative viability: 0.361
[13]; first compound 0.05 µM
  relative viability: 0.346
[13]; first compound 0.1581 µM
  relative viability: 0.27
[13]; first compound 0.5 µM
  relative viability: 0.267
[14]; first compound 0.005 µM
  relative viability: 0.799
[14]; first compound 0.01581 µM
  relative viability: 0.887
[14]; first compound 0.05 µM
  relative viability: 0.788
[14]; first compound 0.1581 µM
  relative viability: 0.856
[14]; first compound 0.5 µM
  relative viability: 0.583
[15]; first compound 0.005 µM
  relative viability: 0.226
[15]; first compound 0.01581 µM
  relative viability: 0.29
[15]; first compound 0.05 µM
  relative viability: 0.289
[15]; first compound 0.1581 µM
  relative viability: 0.214
[15]; first compound 0.5 µM
  relative viability: 0.23
[16]; first compound 0.005 µM
  relative viability: 0.224
[16]; first compound 0.01581 µM
  relative viability: 0.25
[16]; first compound 0.05 µM
  relative viability: 0.255
[16]; first compound 0.1581 µM
  relative viability: 0.316
[16]; first compound 0.5 µM
  relative viability: 0.239
[17]; first compound 0.005 µM
  relative viability: 0.216
[17]; first compound 0.01581 µM
  relative viability: 0.242
[17]; first compound 0.05 µM
  relative viability: 0.202
[17]; first compound 0.1581 µM
  relative viability: 0.266
[17]; first compound 0.5 µM
  relative viability: 0.19
[18]; first compound 0.005 µM
  relative viability: 0.301
[18]; first compound 0.01581 µM
  relative viability: 0.333
[18]; first compound 0.05 µM
  relative viability: 0.326
[18]; first compound 0.5 µM
  relative viability: 0.33
[19]; first compound 0.005 µM
  relative viability: 0.431
[19]; first compound 0.01581 µM
  relative viability: 0.532
[19]; first compound 0.05 µM
  relative viability: 0.551
[19]; first compound 0.1581 µM
  relative viability: 0.445
[19]; first compound 0.5 µM
  relative viability: 0.524
[20]; first compound 0.005 µM
  relative viability: 0.934
[20]; first compound 0.01581 µM
  relative viability: 1
[20]; first compound 0.05 µM
  relative viability: 0.983
[20]; first compound 0.1581 µM
  relative viability: 0.812
[20]; first compound 0.5 µM
  relative viability: 0.951
[21]; first compound 0.005 µM
  relative viability: 0.534
[21]; first compound 0.01581 µM
  relative viability: 0.579
[21]; first compound 0.05 µM
  relative viability: 0.621
[21]; first compound 0.1581 µM
  relative viability: 0.67
[21]; first compound 0.5 µM
  relative viability: 0.607
[22]; first compound 0.005 µM
  relative viability: 0.571
[22]; first compound 0.01581 µM
  relative viability: 0.605
[22]; first compound 0.05 µM
  relative viability: 0.483
[22]; first compound 0.5 µM
  relative viability: 0.474

Reference: the supplement of paper PMC10307832
